# Source: publication PMC9613470, “Diverse MarR bacterial regulators of auxin catabolism in the plant microbiome” (Nature Microbiology, 2022)
# Entries after “also recorded” stand apart in the source; their conditions may differ. Like-named read-outs stand apart in the source and are kept apart here.
# What was measured:
# [1] = target: Bradyrhizobium japonicum MarR_Bj1 (Bradyrhizobium japonicum, UniProt A0A0A3XYM8); experiment: ITC IAA binding to MarR_Bj1; conditions: 25 °C, IadR (MarR_73-like)
# Chain of Bradyrhizobium japonicum MarR_Bj1 (A0A0A3XYM8 entry or part of it): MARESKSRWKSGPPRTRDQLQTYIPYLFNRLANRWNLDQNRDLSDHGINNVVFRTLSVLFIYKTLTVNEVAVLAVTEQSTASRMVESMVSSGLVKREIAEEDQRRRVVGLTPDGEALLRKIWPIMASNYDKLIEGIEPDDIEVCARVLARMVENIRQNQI
# Procedure: (§1) The coding sequence for each gene can be found in Supplementary Table 10. MarR expression plasmids were synthesized as codon-optimized genes for E. coli expression by BioBasic in the pLIC-His N-term vector (pMCSG7) and transformed into E. coli BL21 (DE3) Gold cells for expression. […] At an OD600 of 0.8, protein expression was induced by the addition of 0.1 mM IPTG and incubation continued overnight. Cells were collected by centrifugation at 4,500 × g for 20 min at 4 °C in a Sorvall (model RC-3B) swinging bucket centrifuge. Cell pellets were resuspended in buffer A (20 mM potassium phosphate, pH 7.4, 50 mM imidazole, 500 mM NaCl), DNase, lysozyme and a Roche Complete EDTA-free protease inhibitor tablet. Resuspended cells were sonicated and clarified via centrifugation at 17,000 × g for 60 min in a Sorvall (model RC-5B) swinging bucket centrifuge. The lysate was applied to a nickel-nitrilotriacetic acid HP column (GE Healthcare) on an Aktaxpress Fast Performance Liquid Chromatography (FPLC) system (Amersham Bioscience) and washed with buffer A. Protein was eluted with buffer B (20 mM potassium phosphate, pH 7.4, 500 mM imidazole, 500 mM NaCl). Fractions containing the protein of interest were combined and passed over a HiLoadTM 16/60 SuperdexTM 200 gel filtration column. Proteins were eluted in S200 buffer (20 mM HEPES, pH 7.4, 300 mM NaCl). […]
# [2] = target: Acinetobacter baumannii MarR_Ab (Acinetobacter baumannii, UniProt A0ABX6CGA9); experiment: ITC IAA binding to MarR_Ab
# Procedure: as §1
# [3] = target: Ruegaria pomeroyi MarR_3CDH (Ruegeria pomeroyi, UniProt Q5LTG1); experiment: ITC IAA binding to MarR_3CDH; conditions: 25 °C, IadR (MarR_73-like)
# Chain of Ruegaria pomeroyi MarR_3CDH (Q5LTG1 entry or part of it): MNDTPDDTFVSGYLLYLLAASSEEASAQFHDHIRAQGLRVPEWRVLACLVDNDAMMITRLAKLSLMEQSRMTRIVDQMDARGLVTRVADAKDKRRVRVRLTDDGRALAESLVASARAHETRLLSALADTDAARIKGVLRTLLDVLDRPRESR
# Procedure: The coding sequence for each gene can be found in Supplementary Table 10. MarR expression plasmids were synthesized as codon-optimized genes for E. coli expression by BioBasic in the pLIC-His N-term vector (pMCSG7) and transformed into E. coli BL21 (DE3) Gold cells for expression. […] At an OD600 of 0.8, protein expression was induced by the addition of 0.1 mM IPTG and incubation continued overnight. Cells were collected by centrifugation at 4,500 × g for 20 min at 4 °C in a Sorvall (model RC-3B) swinging bucket centrifuge. Cell pellets were resuspended in buffer A (20 mM potassium phosphate, pH 7.4, 50 mM imidazole, 500 mM NaCl), DNase, lysozyme and a Roche Complete EDTA-free protease inhibitor tablet. Resuspended cells were sonicated and clarified via centrifugation at 17,000 × g for 60 min in a Sorvall (model RC-5B) swinging bucket centrifuge. The lysate was applied to a nickel-nitrilotriacetic acid HP column (GE Healthcare) on an Aktaxpress Fast Performance Liquid Chromatography (FPLC) system (Amersham Bioscience) and washed with buffer A. Protein was eluted with buffer B (20 mM potassium phosphate, pH 7.4, 500 mM imidazole, 500 mM NaCl). Fractions containing the protein of interest were combined and passed over a HiLoadTM 16/60 SuperdexTM 200 gel filtration column. Proteins were eluted in S200 buffer (20 mM HEPES, pH 7.4, 300 mM NaCl). Fractions were combined and concentrated for long-term storage at −80 °C.
# All ITC measurements were performed at 25 °C using an Auto-ITC200 microcalorimeter (MicroCal/GE Healthcare). The buffer employed was 20 mM HEPES, pH 7.4, 50 mM NaCl and 0.5% dimethly sulfoxide (DMSO) for protein/ligand binding and 20 mM HEPES, pH 7.4 and 300 mM NaCl for DNA/protein binding experiments. For ligand binding experiments, the calorimetry cell (volume […]) was loaded with MarR wild-type, mutant or homologue protein at a concentration of 50 μM. The syringe was loaded with a ligand concentration of 0.5 or 2 mM. […] A typical injection protocol included a single 0.2 μl first injection followed by 20 1.5 μl injections of the syringe sample into the calorimetry cell. The spacing between injections was kept at 180 s and the reference power at 8 μcal s^−1. […] Two independent ITC measurements were performed for each condition.
# [4] = target: Bradyrhizobium japonicum MarR_Bj2; experiment: ITC IAA binding to MarR_Bj2; conditions: 25 °C, IadR2 (MarR_50-like)
# Procedure: as §1
# [5] = target: Pseudomonas putida 1290 MarR_iacR (Pseudomonas putida, UniProt B0FXI7); experiment: ITC IAA binding to MarR_iacR; conditions: 25 °C, IacR
# Chain of Pseudomonas putida 1290 MarR_iacR (B0FXI7 whole entry): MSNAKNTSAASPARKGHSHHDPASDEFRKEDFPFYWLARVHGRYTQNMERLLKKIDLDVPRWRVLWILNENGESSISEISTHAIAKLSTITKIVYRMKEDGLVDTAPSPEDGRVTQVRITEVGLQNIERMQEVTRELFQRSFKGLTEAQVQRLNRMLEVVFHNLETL
# Procedure: as §1
compound,measurement,setting,value
"O=C(O)Cc1c[nH]c2ccccc12 [IAA, indole-3-acetic acid]",N1,[1],1.001 ± 0.069
same,Kd,[2],1290 ± 101 nM
same,N1,"[2]; ITC, 25 °C, IacR",0.911 ± 0.011
same,N1,[3]; first site,0.411 ± 0.012
same,Kd,"[3]; first site, read-out: KD1",237 ± 99 nM
same,N2,[3]; second site,0.216 ± 0.011
same,Kd,"[3]; second site, read-out: KD2",6 nM
same,KD1,[4],did not bind; also recorded: No Binding
same,N1,[5],0.590± 0.032
same,Kd,[5]; read-out: KD1,4450 ± 196 nM
